The test system of the assay is MRP1 cells, doxorubicin viability shift, 10 uM compound. Kind of assay: doxorubicin EC50 increase in MRP-1 cells, dose response, cell-based, doxorubicin EC50 shift (AID 844). Particulars: for EC50: measured here: doxorubicin EC50 with compound.

Molecules are shown by their SMILES. Calls of active or inactive are those of the source. The rule behind the calls is not given here.

Regarding `O=C(COc1ccc(Cl)cc1)NCc1nnc(SCC(=O)NCc2ccc3c(c2)OCO3)o1`, the fold increase in Dox EC50 is 1.06 (inactive) and the EC50 was determined as 5.74 µM.

Consider `COc1ccc(-n2c(SCC(=O)Nc3ccccc3)nc3c(c2=O)SCC3)cc1`, for which the fold increase in Dox EC50 was 0.22 (inactive) and the EC50 was determined as 1.18 µM.

As for `CCn1c(SCc2ccc(Cl)cc2)nc2nc3c(cc2c1=O)CCCC3`, the fold increase in Dox EC50 was 0.77 (inactive) and the EC50 came out at 4.17 µM.

For `COC(=O)c1ccc(NC(=O)C(=O)N2CCN(C(=S)Nc3cccc(OC)c3)CC2)cc1`, the fold increase in Dox EC50 is 1.28 (inactive) and the EC50 came to 6.93 µM.

As for `Cc1nc2c(ccc3nc(NC(=O)C(c4ccccc4)c4ccccc4)sc32)s1`, the fold increase in Dox EC50 was 0.84 (inactive) and the EC50 was 4.51 µM.

`Cc1ccc2nc(/N=C(\N)NC(=O)N3c4ccccc4Sc4ccccc43)nc(C)c2c1`: the fold increase in Dox EC50 is 1.94 and the EC50 amounted to 10.5 µM.

Turning to `Cc1ccc(N/N=C(\C#N)C(=N)N2CCOCC2)cc1`, the fold increase in Dox EC50 was 0.92 (inactive) and the EC50 was 4.95 µM.

On to `CC1CCc2nn(CC(=O)N3CCN(C(=O)c4ccco4)CC3)cc2C1` (stereo not drawn), for which the fold increase in Dox EC50 is 0.66 (inactive) and the EC50 is 3.57 µM.

`O=c1c(-c2nnc(SCc3ccc(Cl)cc3)o2)cccn1Cc1ccccc1`: the fold increase in Dox EC50 is 0.63 (inactive) and the EC50 stood at 3.4 µM.

Take `O=C(NC1CCCCCC1)c1nnc(Cc2ccc(Cl)cc2)o1`: the fold increase in Dox EC50 was 0.78 (inactive) and the EC50 is 4.21 µM.

Turning to `Cc1cc(C)nc(NN2C(=O)/C(=C/c3ccc(O)cc3)SC2=S)n1`, the fold increase in Dox EC50 is 1.39 (inactive) and the EC50 was determined as 7.51 µM.

Take `COc1cc(C2NC(=O)NC(C)=C2C(=O)OCc2ccc(C)cc2)cc(OC)c1O` (stereo not drawn): the fold increase in Dox EC50 is 0.68 (inactive) and the EC50 is 3.65 µM.

Regarding `CCCCN(C(=O)Cc1cccs1)c1nnc(-c2cccnc2)s1`, the fold increase in Dox EC50 is 0.86 (inactive) and the EC50 is 4.65 µM.

As for `CCc1nn2c(N)c(/C=C3\C=Nc4ccccc43)c(=O)nc2s1`, the fold increase in Dox EC50 was 1.43 (inactive) and the EC50 is 7.74 µM.

Take `CCc1ccc(NC(=O)Cn2c(=O)oc3cc(S(=O)(=O)N4CCOCC4)ccc32)cc1`: the fold increase in Dox EC50 is 1 (inactive) and the EC50 is 5.4 µM.

For `CC(=O)c1ccc(NC(=O)CN2C(=O)/C(=C/C(C)=C/c3ccccc3)SC2=S)cc1`, the fold increase in Dox EC50 was 0.62 (inactive) and the EC50 was found to be 3.36 µM.

For `N#Cc1nc(COc2ccc(Br)cc2)oc1NCCN1CCOCC1`, the fold increase in Dox EC50 is 0.83 (inactive) and the EC50 stood at 4.5 µM.

As to `COC(=O)N/N=C/c1ccc(-c2ccc(Cl)c(Cl)c2)o1`, the fold increase in Dox EC50 was 0.67 (inactive) and the EC50 came out at 3.62 µM.

`CCCN1C(=O)/C(=N\OCC(=O)NC23CC4CC(CC(C4)C2)C3)c2ccccc21`: the fold increase in Dox EC50 was 1.01 (inactive) and the EC50 came out at 5.43 µM.

Turning to `O=C(Nc1nc(-c2cccc([N+](=O)[O-])c2)cs1)C(c1ccccc1)c1ccccc1`, the fold increase in Dox EC50 is 1.69 and the EC50 was found to be 9.1 µM.

On to `Cc1ccc(C(=O)COc2ccccc2-c2ccccc2)cc1C`, for which the fold increase in Dox EC50 was 0.9 (inactive) and the EC50 is 4.85 µM.

Regarding `CCOC(=O)c1c(-c2ccc(F)cc2)csc1NC(=O)c1c(-c2ccccc2)noc1C`, the fold increase in Dox EC50 was 0.56 (inactive) and the EC50 was 3 µM.

Take `CCOC(=O)c1ccccc1NC(=O)C1COc2ccccc2O1` (stereo not drawn): the fold increase in Dox EC50 is 0.42 (inactive) and the EC50 was 2.28 µM.

On to `Cc1ccc(CC2SC(=Nc3ccccc3)N(c3ccccc3)C2=O)cc1` (stereo not drawn), for which the fold increase in Dox EC50 is 1.69 and the EC50 stood at 9.1 µM.

In the case of `O=C(Nc1ccc(C2CC2(Cl)Cl)cc1)c1ccccc1Br` (stereo not drawn), the fold increase in Dox EC50 was 1.6 and the EC50 was 8.66 µM.

Turning to `CC(=O)OCC(=O)[C@@]1(O)[C@H](C)C[C@H]2[C@@H]3CCC4=CC(=O)C=C[C@]4(C)[C@@]3(F)[C@@H](O)C[C@@]21C`, the fold increase in Dox EC50 was 1 (inactive) and the EC50 is 5.42 µM.

On to `CC(/C=C1\SC(=O)N(CC(=O)Nc2ccc(O)cc2)C1=O)=C\c1ccccc1`, for which the fold increase in Dox EC50 was 0.68 (inactive) and the EC50 came to 3.7 µM.

Turning to `O=C(NC1CCCC1)C(c1c[nH]c2ccccc12)N(C(=O)Cn1nnc(-c2ccc(Cl)cc2)n1)c1ccccc1` (stereo not drawn), the fold increase in Dox EC50 was 0.99 (inactive) and the EC50 is 5.35 µM.

Regarding `CCC(Sc1nc(-c2ccccc2)c(C#N)c(=O)[nH]1)C(=O)Nc1nnc(C)s1` (stereo not drawn), the fold increase in Dox EC50 was 1.82 and the EC50 was 9.85 µM.

In the case of `CCC(C)c1ccc(O)c(NC(=O)c2ncn[nH]2)c1` (stereo not drawn), the fold increase in Dox EC50 is 0.97 (inactive) and the EC50 is 5.25 µM.

As to `COc1ccc(S(=O)(=O)N(CC(=O)N2CCN(c3ccccc3OC)CC2)c2ccccc2)cc1`, the fold increase in Dox EC50 is 0.46 (inactive) and the EC50 came to 2.49 µM.

In the case of `Cc1cc2n(n1)C(c1ccccc1)CC(c1ccc(Br)cc1)=N2` (stereo not drawn), the fold increase in Dox EC50 is 0.76 (inactive) and the EC50 came to 4.12 µM.

For the compound `Cc1cc(N/N=C/c2ccccc2Cl)nc(NCc2ccccc2)n1`, the fold increase in Dox EC50 was 0.2 (inactive) and the EC50 turned out to be 1.08 µM.

Consider `CCOC(=O)c1c(-c2cccs2)csc1NC(=O)CSc1ncn[nH]1`, for which the fold increase in Dox EC50 was 0.2 (inactive) and the EC50 turned out to be 1.09 µM.

Turning to `COc1cccc(C2CC(c3ccc(Cl)cc3)Nc3nc(N)nn32)c1` (stereo not drawn), the fold increase in Dox EC50 was 0.88 (inactive) and the EC50 was found to be 4.77 µM.

On to `CC(C)N(Cc1cc2ccccc2[nH]c1=O)C(=O)C(C)(C)C`, for which the fold increase in Dox EC50 was 1.47 (inactive) and the EC50 worked out at 7.93 µM.

Turning to `O=C1CSC2=NCN(c3ccccc3)CN12`, the fold increase in Dox EC50 was 0.55 (inactive) and the EC50 is 2.95 µM.

In the case of `CCOc1ccc(OCC)c(-c2c(=O)n(OCc3ccc(Cl)cc3)c3ccccc3[n+]2[O-])c1`, the fold increase in Dox EC50 was 0.53 (inactive) and the EC50 amounted to 2.86 µM.

For the compound `CCOc1ccccc1CNC(=O)c1cc2oc3ccccc3c2n1CC`, the fold increase in Dox EC50 is 1.24 (inactive) and the EC50 came to 6.7 µM.

`CN(C)C(=O)Oc1ccc(OC(=O)c2ccccc2)cc1`: the fold increase in Dox EC50 is 1.17 (inactive) and the EC50 was 6.32 µM.

As to `CCN(CC)S(=O)(=O)c1ccc(NN=C(C#N)C#N)cc1`, the fold increase in Dox EC50 was 0.68 (inactive) and the EC50 was found to be 3.7 µM.

With `COc1ncnc2c1oc1nc(CC(C)C)c3c(c12)CCCC3`, the fold increase in Dox EC50 is 0.66 (inactive) and the EC50 was determined as 3.57 µM.

Regarding `COc1cccc(Nc2ncc(C(=O)O)c3ccccc23)c1`, the fold increase in Dox EC50 was 0.56 (inactive) and the EC50 worked out at 3.01 µM.

For `CCOC(=O)C1=C(C)Nc2sc(C(=O)c3ccc(C)cc3)c(N)c2C1c1ccc(C(=O)OC)cc1` (stereo not drawn), the fold increase in Dox EC50 is 0.36 (inactive) and the EC50 was 1.96 µM.

These data come from PubChem BioAssay AID844 (SRMLSC, 2007).
